Laboratory results from ChEMBL document CHEMBL2440076, “New triarylpyrazoles as broad-spectrum anticancer agents: design, synthesis, and biological evaluation” (Eur J Med Chem, 2013).

Legend:
Type in all cases: functional
RXF 393 = assay: Growth inhibition of human RXF393 cells assessed as cell growth at 10^-6 M after 48 hrs by sulforhodamine B assay; details: RXF 393, 48 h, read-out: Activity
SK-MEL-2 = assay: Growth inhibition of human SK-MEL-2 cells assessed as cell growth at 10^-7 M after 48 hrs by sulforhodamine B assay; details: SK-MEL-2, 48 h, read-out: Activity
TK-10 [1] = assay: Growth inhibition of human TK10 cells assessed as cell growth at 10^-5 M after 48 hrs by sulforhodamine B assay; details: TK-10, 48 h, read-out: Activity
IGROV-1 [2] = assay: Growth inhibition of human IGROV1 cells assessed as cell growth at 10^-7 M after 48 hrs by sulforhodamine B assay; details: IGROV-1, 48 h, read-out: Activity
CAKI-1 = assay: Growth inhibition of human CAKI-1 cells assessed as cell growth at 10^-5 M after 48 hrs by sulforhodamine B assay; details: CAKI-1, 48 h, read-out: Activity
RPMI-8226 = assay: Growth inhibition of human RPMI8226 cells assessed as cell growth at 10^-7 M after 48 hrs by sulforhodamine B assay; details: RPMI-8226, 48 h, read-out: Activity
BT-549 [3] = assay: Growth inhibition of human BT549 cells assessed as cell growth at 10^-8 M after 48 hrs by sulforhodamine B assay; details: BT-549, 48 h, read-out: Activity
IGROV-1 [4] = assay: Growth inhibition of human IGROV1 cells assessed as cell growth at 10^-8 M after 48 hrs by sulforhodamine B assay; details: IGROV-1, 48 h, read-out: Activity
Malme-3M [5] = assay: Growth inhibition of human MALME-3M cells assessed as cell growth at 10^-8 M after 48 hrs by sulforhodamine B assay; details: read-out: Activity
[6] = Growth inhibition of human HCC2998 cells assessed as cell growth at 10^-6 M after 48 hrs by sulforhodamine B assay; details: HCC 2998, 48 h, read-out: Activity
MDA-MB-468 = assay: Growth inhibition of human MDA-MB-468 cells assessed as cell growth at 10^-5 M after 48 hrs by sulforhodamine B assay; details: MDA-MB-468, 48 h, read-out: Activity
UACC-257 = assay: Growth inhibition of human UACC257 cells assessed as cell growth at 10^-6 M after 48 hrs by sulforhodamine B assay; details: UACC-257, 48 h, read-out: Activity
SK-OV-3 [7] = assay: Growth inhibition of human SKOV3 cells assessed as cell growth at 10^-6 M after 48 hrs by sulforhodamine B assay; details: SK-OV-3, 48 h, read-out: Activity
OVCAR-5 = assay: Growth inhibition of human OVCAR5 cells assessed as cell growth at 10^-4 M after 48 hrs by sulforhodamine B assay; details: OVCAR-5, 48 h, read-out: Activity
SF-539 = assay: Growth inhibition of human SF539 cells assessed as cell growth at 10^-6 M after 48 hrs by sulforhodamine B assay; details: SF-539, 48 h, read-out: Activity
HCT-15 = assay: Growth inhibition of human HCT15 cells assessed as cell growth at 10^-6 M after 48 hrs by sulforhodamine B assay; details: HCT-15, 48 h, read-out: Activity
OVCAR-3 = assay: Growth inhibition of human OVCAR3 cells assessed as cell growth at 10^-7 M after 48 hrs by sulforhodamine B assay; details: OVCAR-3, 48 h, read-out: Activity
NCI-H322M = assay: Growth inhibition of human NCI-H322M cells assessed as cell growth at 10^-5 M after 48 hrs by sulforhodamine B assay; details: read-out: Activity
COLO 205 = assay: Growth inhibition of human COLO205 cells assessed as cell growth at 10^-7 M after 48 hrs by sulforhodamine B assay; details: COLO 205, 48 h, read-out: Activity
UACC-62 [8] = assay: Growth inhibition of human UACC62 cells assessed as cell growth at 10^-5 M after 48 hrs by sulforhodamine B assay; details: UACC-62, 48 h, read-out: Activity
[9] = Growth inhibition of human NCI-ADR-RES cells assessed as cell growth at 10^-6 M after 48 hrs by sulforhodamine B assay; details: read-out: Activity
[10] = Growth inhibition of human HCC2998 cells assessed as cell growth at 10^-5 M after 48 hrs by sulforhodamine B assay; details: HCC 2998, 48 h, read-out: Activity
Malme-3M [11] = assay: Growth inhibition of human MALME-3M cells assessed as cell growth at 10^-6 M after 48 hrs by sulforhodamine B assay; details: read-out: Activity
K562 [12] = assay: Growth inhibition of human K562 cells assessed as cell growth at 10^-8 M after 48 hrs by sulforhodamine B assay; details: K562, 48 h, read-out: Activity
KM12 = assay: Growth inhibition of human KM12 cells assessed as cell growth at 10^-4 M after 48 hrs by sulforhodamine B assay; details: KM12, 48 h, read-out: Activity
SK-OV-3 [13] = assay: Growth inhibition of human SKOV3 cells assessed as cell growth at 10^-5 M after 48 hrs by sulforhodamine B assay; details: SK-OV-3, 48 h, read-out: Activity
U-251 = assay: Growth inhibition of human U251 cells assessed as cell growth at 10^-6 M after 48 hrs by sulforhodamine B assay; details: U-251, 48 h, read-out: Activity
SK-MEL-28 = assay: Growth inhibition of human SK-MEL-28 cells assessed as cell growth at 10^-7 M after 48 hrs by sulforhodamine B assay; details: SK-MEL-28, 48 h, read-out: Activity
TK-10 [14] = assay: Growth inhibition of human TK10 cells assessed as cell growth at 10^-4 M after 48 hrs by sulforhodamine B assay; details: TK-10, 48 h, read-out: Activity
BT-549 [15] = assay: Growth inhibition of human BT549 cells assessed as cell growth at 10^-5 M after 48 hrs by sulforhodamine B assay; details: BT-549, 48 h, read-out: Activity
K562 [16] = assay: Growth inhibition of human K562 cells assessed as cell growth at 10^-6 M after 48 hrs by sulforhodamine B assay; details: K562, 48 h, read-out: Activity
M14 [17] = assay: Growth inhibition of human M14 cells assessed as cell growth at 10^-5 M after 48 hrs by sulforhodamine B assay; details: M14, 48 h, read-out: Activity
M14 [18] = assay: Growth inhibition of human M14 cells assessed as cell growth at 10^-6 M after 48 hrs by sulforhodamine B assay; details: M14, 48 h, read-out: Activity
NCI-H460 = assay: Growth inhibition of human NCI-H460 cells assessed as cell growth at 10^-8 M after 48 hrs by sulforhodamine B assay; details: NCI-H460, 48 h, read-out: Activity
UACC-62 [19] = assay: Growth inhibition of human UACC62 cells assessed as cell growth at 10^-4 M after 48 hrs by sulforhodamine B assay; details: UACC-62, 48 h, read-out: Activity
K562 [20] = assay: Growth inhibition of human K562 cells assessed as cell growth at 10^-4 M after 48 hrs by sulforhodamine B assay; details: K562, 48 h, read-out: Activity
A549 = assay: Growth inhibition of human A549/ATCC cells assessed as cell growth at 10^-5 M after 48 hrs by sulforhodamine B assay; details: A549, 48 h, read-out: Activity
HL-60(TB) = assay: Growth inhibition of human HL-60(TB) cells assessed as cell growth at 10^-8 M after 48 hrs by sulforhodamine B assay; details: HL-60, 48 h, read-out: Activity

SMILES	growth at 1 µM (RXF 393) [%]	growth at 0.1 µM (SK-MEL-2) [%]	growth at 10 µM (TK-10 [1]) [%]	growth at 0.1 µM (IGROV-1 [2]) [%]	growth at 10 µM (CAKI-1) [%]	growth at 0.1 µM (RPMI-8226) [%]	growth at 0.01 µM (BT-549 [3]) [%]	growth at 0.01 µM (IGROV-1 [4]) [%]	growth at 0.01 µM (Malme-3M [5]) [%]	growth at 1 µM [6] [%]	growth at 10 µM (MDA-MB-468) [%]	growth at 1 µM (UACC-257) [%]	growth at 1 µM (SK-OV-3 [7]) [%]	growth at 100 µM (OVCAR-5) [%]	growth at 1 µM (SF-539) [%]	growth at 1 µM (HCT-15) [%]	growth at 0.1 µM (OVCAR-3) [%]	growth at 10 µM (NCI-H322M) [%]	growth at 0.1 µM (COLO 205) [%]	growth at 10 µM (UACC-62 [8]) [%]	further results
COc1cc(-c2nn(-c3cccc(NC(=O)c4ccccc4)c3)cc2-c2ccncc2)ccc1Cl	35	90	45	91	14	96	92	105	98	75	-15	47	51	8	21	40	101	36	95	25	growth at 1 µM [9]: 28%; growth at 10 µM [10]: 7%; growth at 1 µM (Malme-3M [11]): 38%; growth at 0.01 µM (K562 [12]): 102%; growth at 100 µM (KM12): 6%; growth at 10 µM (SK-OV-3 [13]): 31%; growth at 1 µM (U-251): 40%; growth at 0.1 µM (SK-MEL-28): 94%; growth at 100 µM (TK-10 [14]): 23%; growth at 10 µM (BT-549 [15]): 26%; growth at 1 µM (K562 [16]): 21%; growth at 10 µM (M14 [17]): 5%; growth at 1 µM (M14 [18]): 37%; growth at 0.01 µM (NCI-H460): 102%; growth at 100 µM (UACC-62 [19]): 19%; growth at 100 µM (K562 [20]): 11%; growth at 10 µM (A549): 17%; growth at 0.01 µM (HL-60(TB)): 96%
COc1cc(-c2nn(-c3cccc(NC(=O)c4ccc(N5CCOCC5)c(C(F)(F)F)c4)c3)cc2-c2ccncc2)ccc1Cl	-16	73	14	81	-2	88	99	111	103	52	-64	49	24	2	-30	27	76	26	101	-4	growth at 1 µM [9]: 11%; growth at 10 µM [10]: -22%; growth at 1 µM (Malme-3M [11]): 33%; growth at 0.01 µM (K562 [12]): 99%; growth at 100 µM (KM12): -12%; growth at 10 µM (SK-OV-3 [13]): -11%; growth at 1 µM (U-251): 25%; growth at 0.1 µM (SK-MEL-28): 68%; growth at 100 µM (TK-10 [14]): -7%; growth at 10 µM (BT-549 [15]): 25%; growth at 1 µM (K562 [16]): 11%; growth at 10 µM (M14 [17]): 8%; growth at 1 µM (M14 [18]): 35%; growth at 0.01 µM (NCI-H460): 100%; growth at 100 µM (UACC-62 [19]): -32%; growth at 100 µM (K562 [20]): 3%; growth at 10 µM (A549): 7%; growth at 0.01 µM (HL-60(TB)): 109%
